≈ marks a conversion by molar mass, not a printed value.
Legend:
Pseudomonas aeruginosa [1] = assay: Antibacterial activity against Pseudomonas aeruginosa after 24 hrs by paper disc diffusion technique; assay type: functional; conditions: Pseudomonas aeruginosa, 24 h; read-out: MIC
Escherichia coli [2] = assay: Antibacterial activity against Escherichia coli after 24 hrs by paper disc diffusion technique; assay type: functional; conditions: Escherichia coli, 24 h; read-out: MIC
Klebsiella pneumoniae = assay: Antibacterial activity against Klebsiella pneumoniae after 24 hrs by paper disc diffusion technique; assay type: functional; conditions: Klebsiella pneumoniae, 24 h; read-out: MIC
Staphylococcus aureus [3] = assay: Antibacterial activity against Staphylococcus aureus after 24 hrs by paper disc diffusion technique; assay type: functional; conditions: Staphylococcus aureus, 24 h; read-out: MIC
Micrococcus luteus = assay: Antibacterial activity against Micrococcus luteus after 24 hrs by paper disc diffusion technique; assay type: functional; conditions: Micrococcus luteus, 24 h; read-out: MIC
[4] = test system: Staphylococcus epidermidis; assay: Antibacterial activity against Staphylococcus epidermidis after 24 hrs by paper disc diffusion technique; assay type: functional; conditions: Staphylococcus epidermidis, 24 h; read-out: MIC
Shigella dysenteriae = assay: Antibacterial activity against Shigella dysenteriae after 24 hrs by agar well diffusion technique; assay type: functional
Escherichia coli [5] = assay: Antibacterial activity against Escherichia coli ATCC 25922 after 24 hrs by agar well diffusion technique; assay type: functional; conditions: ATCC 25922, 24 h
Bacillus cereus = assay: Antibacterial activity against Bacillus cereus after 24 hrs by agar well diffusion technique; assay type: functional
Staphylococcus aureus [6] = assay: Antibacterial activity against Staphylococcus aureus ATCC 25923 after 24 hrs by agar well diffusion technique; assay type: functional; conditions: ATCC 25923, 24 h
Staphylococcus aureus [7] = assay: Antibacterial activity against Staphylococcus aureus by two-fold serial dilution technique; assay type: functional
Bacillus subtilis = assay: Antibacterial activity against Bacillus subtilis by two-fold serial dilution technique; assay type: functional
Escherichia coli [8] = assay: Antibacterial activity against Escherichia coli by two-fold serial dilution technique; assay type: functional
Pseudomonas aeruginosa [9] = assay: Antibacterial activity against Pseudomonas aeruginosa by two-fold serial dilution technique; assay type: functional
Pseudomonas aeruginosa [10] = assay: Antibacterial activity against Pseudomonas aeruginosa; assay type: functional, organism-based
Staphylococcus aureus [11] = assay: Antibacterial activity against Staphylococcus aureus; assay type: functional, organism-based
Escherichia coli [12] = assay: Antibacterial activity against Escherichia coli; assay type: functional, organism-based

## O=C(O)c1cn(C2CC2)c2cc(N3CCN(CN4C(=O)/C(=N/c5ccc(/N=C/c6ccccc6O)cc5)c5cc(F)ccc54)CC3)c(F)cc2c1=O
Pseudomonas aeruginosa [1]
  MIC: 7.81 to 125 µg/mL (≈ 11.1 to 178 µM)
Escherichia coli [2]
  MIC: 7.81 to 125 µg/mL (≈ 11.1 to 178 µM)
Klebsiella pneumoniae
  MIC: 7.81 to 125 µg/mL (≈ 11.1 to 178 µM)
Staphylococcus aureus [3]
  MIC: 7.81 to 125 µg/mL (≈ 11.1 to 178 µM)
Micrococcus luteus
  MIC: 7.81 to 125 µg/mL (≈ 11.1 to 178 µM)
[4]
  MIC: 7.81 to 125 µg/mL (≈ 11.1 to 178 µM)

## O=C(O)c1cn(C2CC2)c2cc(N3CCN(CN4C(=O)/C(=N/c5ccc(/N=C/c6cccc([N+](=O)[O-])c6)cc5)c5cc(F)ccc54)CC3)c(F)cc2c1=O
Pseudomonas aeruginosa [1]
  MIC: 7.81 to 125 µg/mL (≈ 10.7 to 171 µM)
Escherichia coli [2]
  MIC: 7.81 to 125 µg/mL (≈ 10.7 to 171 µM)
Klebsiella pneumoniae
  MIC: 7.81 to 125 µg/mL (≈ 10.7 to 171 µM)
Staphylococcus aureus [3]
  MIC: 7.81 to 125 µg/mL (≈ 10.7 to 171 µM)
Micrococcus luteus
  MIC: 7.81 to 125 µg/mL (≈ 10.7 to 171 µM)
[4]
  MIC: 7.81 to 125 µg/mL (≈ 10.7 to 171 µM)

## CN(C)c1ccc(/C=N/c2ccc(/N=C3/C(=O)N(CN4CCN(c5cc6c(cc5F)c(=O)c(C(=O)O)cn6C5CC5)CC4)c4ccc(F)cc43)cc2)cc1
Pseudomonas aeruginosa [1]
  MIC: 7.81 to 125 µg/mL (≈ 10.7 to 171 µM)
Escherichia coli [2]
  MIC: 7.81 to 125 µg/mL (≈ 10.7 to 171 µM)
Klebsiella pneumoniae
  MIC: 7.81 to 125 µg/mL (≈ 10.7 to 171 µM)
Staphylococcus aureus [3]
  MIC: 7.81 to 125 µg/mL (≈ 10.7 to 171 µM)
Micrococcus luteus
  MIC: 7.81 to 125 µg/mL (≈ 10.7 to 171 µM)
[4]
  MIC: 7.81 to 125 µg/mL (≈ 10.7 to 171 µM)

## COc1cc(/C=N/N2C(N)=NNC23C(=O)Nc2ccc(C)cc23)ccc1O (centres undefined)
Shigella dysenteriae
  MIC: 1 to 15 µg/mL (≈ 2.73 to 40.9 µM)
Escherichia coli [5]
  MIC: 1 to 15 µg/mL (≈ 2.73 to 40.9 µM)
Bacillus cereus
  MIC: 1 to 15 µg/mL (≈ 2.73 to 40.9 µM)
Staphylococcus aureus [6]
  MIC: 1 to 15 µg/mL (≈ 2.73 to 40.9 µM)

## Cc1ccc(/C=N/c2ccc(/N=C3/C(=O)N(CN4CCN(c5cc6c(cc5F)c(=O)c(C(=O)O)cn6C5CC5)CC4)c4ccc(F)cc43)cc2)cc1
Pseudomonas aeruginosa [1]
  MIC: 7.81 to 125 µg/mL (≈ 11.1 to 178 µM)
Escherichia coli [2]
  MIC: 7.81 to 125 µg/mL (≈ 11.1 to 178 µM)
Klebsiella pneumoniae
  MIC: 7.81 to 125 µg/mL (≈ 11.1 to 178 µM)
Staphylococcus aureus [3]
  MIC: 7.81 to 125 µg/mL (≈ 11.1 to 178 µM)
Micrococcus luteus
  MIC: 7.81 to 125 µg/mL (≈ 11.1 to 178 µM)
[4]
  MIC: 7.81 to 125 µg/mL (≈ 11.1 to 178 µM)

## O=C(N/N=C1\C(=O)N(Cc2ccccc2)c2ccccc21)N/N=C1\C(=O)N(Cc2ccccc2)c2ccccc21
Staphylococcus aureus [7]
  MIC: 6.25 to 100 µg/mL (≈ 11.8 to 189 µM)
Bacillus subtilis
  MIC: 6.25 to 100 µg/mL (≈ 11.8 to 189 µM)
Escherichia coli [8]
  MIC: 6.25 to 100 µg/mL (≈ 11.8 to 189 µM)
Pseudomonas aeruginosa [9]
  MIC: 6.25 to 100 µg/mL (≈ 11.8 to 189 µM)

## Cc1ccc2c(c1)/C(=N/c1nc3ccccc3[nH]1)C(=O)N2
Shigella dysenteriae
  MIC: 1 to 15 µg/mL (≈ 3.62 to 54.3 µM)
Escherichia coli [5]
  MIC: 1 to 15 µg/mL (≈ 3.62 to 54.3 µM)
Bacillus cereus
  MIC: 1 to 15 µg/mL (≈ 3.62 to 54.3 µM)
Staphylococcus aureus [6]
  MIC: 1 to 15 µg/mL (≈ 3.62 to 54.3 µM)

## Cc1c(C)c2c(c(C)c1O)CCC(C)(C(=O)N/N=C1\C(=O)N(C)c3ccccc31)O2 (centres undefined)
Pseudomonas aeruginosa [10]
  MIC: 12.5 to 100 µg/mL (≈ 30.7 to 245 µM)
Staphylococcus aureus [11]
  MIC: 12.5 to 100 µg/mL (≈ 30.7 to 245 µM)
Escherichia coli [12]
  MIC: 12.5 to 100 µg/mL (≈ 30.7 to 245 µM)

## Cc1cc(NS(=O)(=O)c2ccc(N)cc2)no1 [SULFAMETHOXAZOLE]
Shigella dysenteriae
  MIC: 2.5 µg/mL (≈ 9.87 µM)
Escherichia coli [5]
  MIC: 2.5 µg/mL (≈ 9.87 µM)
Bacillus cereus
  MIC: 2.5 µg/mL (≈ 9.87 µM)
Staphylococcus aureus [6]
  MIC: 2.5 µg/mL (≈ 9.87 µM)

## O=C(N/N=C1\C(=O)Nc2ccc(F)cc21)N/N=C1\C(=O)Nc2ccc(F)cc21
Staphylococcus aureus [7]
  MIC: 6.25 to 100 µg/mL (≈ 16.3 to 260 µM)
Bacillus subtilis
  MIC: 6.25 to 100 µg/mL (≈ 16.3 to 260 µM)
Escherichia coli [8]
  MIC: 6.25 to 100 µg/mL (≈ 16.3 to 260 µM)
Pseudomonas aeruginosa [9]
  MIC: 6.25 to 100 µg/mL (≈ 16.3 to 260 µM)

## Cc1cc(NS(=O)(=O)c2ccc(/N=C3\C(=O)Nc4ccc(Cl)cc43)cc2)no1
Shigella dysenteriae
  MIC: 1 to 15 µg/mL (≈ 2.4 to 36 µM)
Escherichia coli [5]
  MIC: 1 to 15 µg/mL (≈ 2.4 to 36 µM)
Bacillus cereus
  MIC: 1 to 15 µg/mL (≈ 2.4 to 36 µM)
Staphylococcus aureus [6]
  MIC: 1 to 15 µg/mL (≈ 2.4 to 36 µM)

## Cc1cc(NS(=O)(=O)c2ccc(/N=C3\C(=O)N(CO)c4ccccc43)cc2)no1
Shigella dysenteriae
  MIC: 1 to 15 µg/mL (≈ 2.42 to 36.4 µM)
Escherichia coli [5]
  MIC: 1 to 15 µg/mL (≈ 2.42 to 36.4 µM)
Bacillus cereus
  MIC: 1 to 15 µg/mL (≈ 2.42 to 36.4 µM)
Staphylococcus aureus [6]
  MIC: 1 to 15 µg/mL (≈ 2.42 to 36.4 µM)

## Cc1ccc2c(c1)/C(=N/NC(=O)N/N=C1\C(=O)N(Cc3ccccc3)c3ccc(C)cc31)C(=O)N2Cc1ccccc1
Staphylococcus aureus [7]
  MIC: 6.25 to 100 µg/mL (≈ 11.2 to 180 µM)
Bacillus subtilis
  MIC: 6.25 to 100 µg/mL (≈ 11.2 to 180 µM)
Escherichia coli [8]
  MIC: 6.25 to 100 µg/mL (≈ 11.2 to 180 µM)
Pseudomonas aeruginosa [9]
  MIC: 6.25 to 100 µg/mL (≈ 11.2 to 180 µM)

## O=C(N/N=C1\C(=O)Nc2ccc([N+](=O)[O-])cc21)N/N=C1\C(=O)Nc2ccc([N+](=O)[O-])cc21
Staphylococcus aureus [7]
  MIC: 6.25 to 100 µg/mL (≈ 14.3 to 228 µM)
Bacillus subtilis
  MIC: 6.25 to 100 µg/mL (≈ 14.3 to 228 µM)
Escherichia coli [8]
  MIC: 6.25 to 100 µg/mL (≈ 14.3 to 228 µM)
Pseudomonas aeruginosa [9]
  MIC: 6.25 to 100 µg/mL (≈ 14.3 to 228 µM)

## Cc1c(C)c2c(c(C)c1O)CCC(C)(C(=O)N/N=C1\C(=O)Nc3ccc(Cl)cc31)O2 (centres undefined)
Pseudomonas aeruginosa [10]
  MIC: 12.5 to 100 µg/mL (≈ 29.2 to 234 µM)
Staphylococcus aureus [11]
  MIC: 12.5 to 100 µg/mL (≈ 29.2 to 234 µM)
Escherichia coli [12]
  MIC: 12.5 to 100 µg/mL (≈ 29.2 to 234 µM)

## Cc1c(C)c2c(c(C)c1O)CCC(C)(C(=O)N/N=C1\C(=O)Nc3ccccc31)O2 (centres undefined)
Pseudomonas aeruginosa [10]
  MIC: 12.5 to 100 µg/mL (≈ 31.8 to 254 µM)
Staphylococcus aureus [11]
  MIC: 12.5 to 100 µg/mL (≈ 31.8 to 254 µM)
Escherichia coli [12]
  MIC: 12.5 to 100 µg/mL (≈ 31.8 to 254 µM)
